For one series, the target named is T1, hERG potassium channel (Homo sapiens, UniProt Q12809).
T1 construct: Eurofins
Put plainly: hERG channel binding assay ([3H]dofetilide displacement). The conditions noted are these: for inhibition at 10 µM: human, probe [3H]dofetilide. The procedure: The evaluation of the binding of the compounds to the human hERG potassium channel was carried out as described previously (Eurofins).
Since the blocking of the human potassium channel hERG channel may be responsible for cardiac fibrillation leading to cardiac arrest and death of the patient, the binding of the 3 molecules SG6163F, VP331 and LOPA87 to this receptor was evaluated.
A general note: The hERG channel carries a current that helps repolarise heart muscle cells.

Series [1] deals with A549 lung cancer cell line. Put plainly: Influence of hits on growth of A549 cancer cells (total LDH after lysis). Type of series: cell-based. The conditions noted are these: 48 h. As to the method: The cells were cultured for 6 h in the presence or absence of the hits, and then for 42 h. Finally, the cells were lysed with lysis buffer and the amount of LDH was measured to evaluate the total cell growth.
A colorimetric assay was used to measure lactate dehydrogenase (LDH), a cytosolic enzyme which is released during permeabilization of the plasma membrane (Promega G1780). The assay was performed using cell culture supernatants obtained from H9C2 or RNVC (rat neonatal ventricular myocyte) cells and lysis buffer (LB) was used as a positive control for total cell lysis. The LDH release was measured by absorbance reading at 490 nm (Infinite spectrofluorimeter, Tecan).
The effect of the compounds was then evaluated on primary rat neonatal ventricular cardiomyocytes (RNVCs) using the LDH test and propidium iodide staining. […] The absence of proliferative effects of the compounds was also evaluated on the A549 lung cancer cell line for 48 h (FIG. 2C).

Series [2] relates to RNVCs. Put plainly: Mitochondrial network and cell volume by confocal microscopy (Mitotracker, calcein-AM, IMARIS). Type of series: cell-based, rat. The note with it: for effect on the mitochondrial network / number of mitochondria: 1 and 10 μM, 6 h. The procedure:
FIG. 6. Effects on mitochondrial dynamics by fluorescence microscopy The RNVCs were treated with 1 μM hits (FIG. 6A) and 10 μM hits (FIG. 6B) for 6 h and the mitochondrial network was stained with 200 nM of Mitotracker. The mitochondrial network and individual mitochondria were then analyzed using a Leica confocal microscope and IMARIS software. Data are presented as mean±SEM with single-factor ANOVA, and multiple Sidak comparisons. *, p<0.05, **, p<0.01, ***, p<0.001 with respect to DMSO.
FIG. 11: following the treatment of the RNVCs with the compounds as indicated, the cell volume was stained with 4 μM of calcein-AM. The cell volume was then analyzed using the IMARIS software.
Confocal microscopy. On day 0, 4×10^5 neonatal cardiomyocytes were plated overnight on laminin-coated 35 mm culture dishes (10 μg/ml). On day 1, the cells were treated with various compounds at 1 or 10 μM for 6 hours. The cells were incubated with Mitotracker Red 580 at 200 nM for 20 minutes at 37° C., then 4 μM of calcein (Calcein AM, Life Technologies, St Aubin, France) for 10 minutes at 37° C. The images were acquired with a Leica confocal microscope (SP5) (Mannheim, Germany). The mitochondrial network and the 3D model of cell volume were reconstructed using the IMARIS software (Bitplane Company, Zurich, Switzerland); therefore the cell volume, mitochondrial number and volume were analyzed.
Due to the importance of mitochondria and reactive oxygen species (ROS) levels in the fate of cardiomyocyte cells, the hypothesis that the compounds could impact the mitochondrial network was explored. Following treatment of the RNVCs with the compounds tested, the mitochondrial network was stained with 200 nM of Mitotracker and the cell volume with 4 μM of calcein-AM. Thus, the mitochondrial network and the individual mitochondria were then analyzed using the IMARIS software.

Series [3] has as its system RNVCs. In words: Mitochondrial ROS production with MitoSOX fluorescent probe. Type of series: cell-based, rat. The conditions noted are these: 1 μM, 6 h. The procedure:
FIG. 12: The RNVCs were treated with 0.1% DMSO, 3 μM rapamycin, 1 μM digitoxigenin, 1 μM digoxin, 1 μM minaprin, 1 μM VP331, 1 μM LOPA87, 10 μM SG6163F for 6 h, then the ROS production was stained with the MitoSOX fluorescent probe.
The RNVCs were treated with 0.01% DMSO, 3 μM rapamycin, […], 1 μM digoxin, 1 μM minaprine, 1 μM VP331, 1 μM LOPA87, 10 μM SG6163F in a serum-free cell culture medium for 6 hours. The contents (50 μg) of a MitoSOX™ mitochondrial superoxide indicator vial (ThermoFisher, M36008) were dissolved in 13 μl dimethyl sulfoxide (DMSO) to prepare a 5 mM MitoSOX™ reagent stock solution. Next, the 5 mM MitoSOX™ reagent stock solution in PBS was diluted to prepare a 5 μM working solution of MitoSOX™ reagent. After treatment, the cells were rinsed twice with hot PBS and then incubated with a MitoSOX reagent working solution for 10 minutes at 37° C. The cells were gently rinsed three times with hot PBS. Red fluorescence was detected with a Leica confocal microscope. Nuclear fluorescence was suppressed and mitochondrial fluorescence intensity was measured using ImageJ software.
ROSs are produced or accumulated as a by-product of mitochondrial activity metabolism. Thus, the ROSs may be a consequence of mitochondrial function or may reflect a defect in the mitochondrial antioxidant system.

The subject of series [4] is H9C2 cells. Put plainly: Exogenous fatty acid oxidation (XF palmitate-BSA FAO substrate with mito stress test). Type of series: cell-based, rat. The conditions noted are these: fatty acids as substrate. As to the method: FIG. 8C: the oxidation of the exogenous fatty acids was measured simultaneously using the XF palmitate-BSA FAO substrate kit with the mito stress test on XF cells. Before starting the test, 30 μL of XF palmitate-BSA CAM or BSA control substrate were added to the appropriate wells.
The XFe96 extracellular flow analyzer (Seahorse Biosciences, North Billerica, MA, USA) was used to measure the bioenergetic function of H9C2 cardiomyocytes. The H9C2 cells were seeded at 20 000 cells per well in XF96 cell culture microplates; all the pretreatments were carried out with serum-free cell culture medium. The Agilent Seahorse XF glycolysis stress test was performed to measure glycolytic function in the H9C2 cells; the extracellular acidification rate (ECAR) was measured sequentially by 3 injections, 10 mM glucose, 2 μM oligomycin and 50 mM 2-deoxy-D-glucose (2-DG). The Agilent Seahorse XF Cell Mito stress test measured key parameters of mitochondrial function by directly measuring the oxygen consumption rate (OCR) of the H9C2 cells. […] The oxidation of the exogenous fatty acids was measured simultaneously using the XF palmitate-BSA FAO substrate kit with the mitochondrial stress test on XF cells. […]
(§1) Next, the energy metabolism was analyzed in real time using the Seahorse technology in H9C2 cells.

Series [5] has as its system H9C2 cells. In words: Seahorse XF Cell Mito stress test (OCR). The conditions noted are these: glucose and pyruvate as substrates, 6 h. Type of series: cell-based, rat. As to the method: FIG. 8B: the H9c2 cells were treated with the compounds for 6 h, then a mitochondrial respiration stress test was carried out.
The XFe96 extracellular flow analyzer (Seahorse Biosciences, North Billerica, MA, USA) was used to measure the bioenergetic function of H9C2 cardiomyocytes. The H9C2 cells were seeded at 20 000 cells per well in XF96 cell culture microplates; all the pretreatments were carried out with serum-free cell culture medium. The Agilent Seahorse XF glycolysis stress test was performed to measure glycolytic function in the H9C2 cells; the extracellular acidification rate (ECAR) was measured sequentially by 3 injections, 10 mM glucose, 2 μM oligomycin and 50 mM 2-deoxy-D-glucose (2-DG). The Agilent Seahorse XF Cell Mito stress test measured key parameters of mitochondrial function by directly measuring the oxygen consumption rate (OCR) of the H9C2 cells. The test used the built-in injection ports on XF sensor cartridges to add respiration modulators into the cell well during the test in order to reveal key parameters of mitochondrial function. Oligomycin at 2 μM was injected first after the baseline measurements. Then 1 μM of […] (FCCP) was injected. The third injection corresponds to 0.5 μM of antimycin A, to stop mitochondrial respiration. The oxidation of the exogenous fatty acids was measured simultaneously using the XF palmitate-BSA FAO substrate kit with the mitochondrial stress test on XF cells. The substrate-limited medium is DMEM with 0.5 mM glucose, 1 mM GlutaMAX, 0.5 mM carnitine and 1% fetal calf serum. Carnitine was added freshly on the day of the change of medium. The FAO test medium contains 111 mM NaCl, 4.7 mM KCl, 1.25 mM CaCl2, 2 mM MgSO4, 1.2 mM NaH2PO4, supplemented with 2.5 mM glucose, 0.5 mM carnitine and 5 mM HEPES on the day of the test, adjusted to pH 7.4 at 37° C. The H9C2 cells were seeded at 20 000 cells per well in XF96 cell culture microplates. […]
as §1

The test system of another series is LC3II. In words: LC3 I/II conversion by western blot in RNVCs. Type of series: cell-based, rat. The conditions noted are these: rapamycin positive control (3 μM). As to the method: FIG. 4E: LC3-I/II protein levels in the RNVCs. Data are presented as mean±SEM with single-factor ANOVA, and multiple Sidak comparisons. *, p<0.05, **, p<0.01 with respect to DMSO.
The H9C2 cells and RNVCs were detached in LB containing: 50 mM Tris, 150 mM NaCl, 1 mM EDTA, 0.5% deoxycholate, 1% Triton X 100, 0.1% SDS (pH 8.0). The cells were collected and placed on ice for 30 minutes. The cells were then centrifuged at 2000 g for 20 minutes at for 4° C. The supernatant was transferred to a new tube and stored on ice. The protein concentration was determined by BCA assay. The protein samples were diluted with sample buffer (2× Laemmli, Sigma), mixed, and heated for 5 minutes at 95° C. […] The images were recorded with a gel imaging system (Bio Rad). […]
Next, the hypothesis that the compounds could protect cardiac cells by activating autophagy, a catabolic process conserved in evolution that involves the degradation of damaged cytoplasmic components, was formulated. […] Then, the cells were treated with the hits and with H2O2 for 2 hours and their survival was analyzed 4 hours later by measuring LDH release (FIGS. 4B, 4C). […] In order to confirm the induction of autophagy by another approach, the RNVCs were transfected with a GFP-LC3 plasmid and the formation of the autophagosome was monitored 24 hours later. […]
Background: Immunoblotting shows a protein as a band on a membrane.

Read-outs that look alike come from different tables or passages of the source.

T1 sequence (Q12809 whole entry): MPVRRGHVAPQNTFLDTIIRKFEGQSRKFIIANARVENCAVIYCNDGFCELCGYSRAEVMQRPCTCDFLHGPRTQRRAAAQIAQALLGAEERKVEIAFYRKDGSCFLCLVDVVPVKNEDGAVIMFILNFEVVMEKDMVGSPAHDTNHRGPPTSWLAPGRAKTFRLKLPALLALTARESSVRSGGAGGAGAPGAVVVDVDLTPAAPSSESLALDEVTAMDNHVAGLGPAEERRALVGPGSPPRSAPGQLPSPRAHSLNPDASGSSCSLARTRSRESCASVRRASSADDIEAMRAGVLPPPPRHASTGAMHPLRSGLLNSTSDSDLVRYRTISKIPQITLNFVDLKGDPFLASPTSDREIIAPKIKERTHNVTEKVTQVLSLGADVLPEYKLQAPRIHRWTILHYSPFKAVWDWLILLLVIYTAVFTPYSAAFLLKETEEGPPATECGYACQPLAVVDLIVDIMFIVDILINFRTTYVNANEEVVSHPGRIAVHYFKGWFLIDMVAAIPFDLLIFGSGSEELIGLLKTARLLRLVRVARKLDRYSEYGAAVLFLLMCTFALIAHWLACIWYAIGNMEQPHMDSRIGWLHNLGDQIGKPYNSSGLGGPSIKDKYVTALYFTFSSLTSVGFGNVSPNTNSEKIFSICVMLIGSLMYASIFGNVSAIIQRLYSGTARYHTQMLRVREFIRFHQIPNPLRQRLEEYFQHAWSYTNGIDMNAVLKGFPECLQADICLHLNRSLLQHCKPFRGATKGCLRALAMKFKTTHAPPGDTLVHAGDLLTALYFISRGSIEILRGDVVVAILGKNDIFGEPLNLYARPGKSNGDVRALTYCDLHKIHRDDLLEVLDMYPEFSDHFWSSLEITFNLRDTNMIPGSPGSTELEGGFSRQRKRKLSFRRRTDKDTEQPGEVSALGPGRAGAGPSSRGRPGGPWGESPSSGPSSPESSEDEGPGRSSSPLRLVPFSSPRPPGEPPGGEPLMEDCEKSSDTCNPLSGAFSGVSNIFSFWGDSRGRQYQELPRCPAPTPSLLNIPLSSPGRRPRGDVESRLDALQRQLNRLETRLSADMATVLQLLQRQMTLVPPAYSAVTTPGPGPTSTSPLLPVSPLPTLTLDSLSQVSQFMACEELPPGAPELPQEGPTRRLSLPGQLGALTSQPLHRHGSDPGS

Consider `COc1ccc(C)cc1/C=N/[C@@H]1C[C@@H]2C[C@H]([C@H]1C)C2(C)C` [VP331], for which the inhibition at 10 µM was -4% on hERG potassium channel (inhibition of tritiated dofetilide binding, only values >50% considered effective, read-out: % inhibit 1st assay); 5.4% at hERG potassium channel (inhibition of tritiated dofetilide binding, only values >50% considered effective, read-out: % inhibit 2nd assay); 0.7% on hERG potassium channel (mean of two independent measurements, read-out: % inhibit Mean). Moreover, the “binding to the hERG channel” value on hERG potassium channel (inhibition of specific binding of [3H]dofetilide in vitro) is “negligible”. The “effect on A549 cell growth” value in series [1] was “no proliferative effect”. The “effect on the mitochondrial network” value in the series with RNVCs [2] is listed as “no effect”. In addition, in the series on RNVCs [2], the number of mitochondria result is reported as “no effect”. Further, the “local level of mitochondrial superoxide anion” value in the series on RNVCs [3] is “induced an elevation”. Moreover, in the series on H9C2 cells [4], the oxidative phosphorylation entry was “improved oxidative phosphorylation”.

As for `Cc1cc(-c2ccccc2)nnc1NCCN1CCOCC1` [minaprine], in series [1], the “effect on A549 cell growth” value is “significantly reduced cell growth and induced cell death”. The mitochondrial mass entry in the series with RNVCs [2] (10 μM) is on record as “decreased the mitochondrial mass”. Moreover, in the series on RNVCs [2], the “effect on the mitochondrial network” value is given as “no effect” and the number of mitochondria entry is “no effect”. Also, the “local level of mitochondrial superoxide anion” value in the series with RNVCs [3] is given as “induced an elevation”. The “ATP production by oxidative phosphorylation (OXPHOS)” value in the series on H9C2 cells [5] is reported as “improved ATP production by oxidative phosphorylation”.

For the compound `CO[C@H]1C[C@@H]2CC[C@@H](C)[C@@](O)(O2)C(=O)C(=O)N2CCCC[C@H]2C(=O)O[C@H]([C@H](C)C[C@@H]2CC[C@@H](O)[C@H](OC)C2)CC(=O)[C@H](C)/C=C(\C)[C@@H](O)[C@@H](OC)C(=O)[C@H](C)C[C@H](C)/C=C/C=C/C=C/1C` [rapamycin, reference compound], the “increase in level of expression of LC3II” value in the series with LC3II is > 1.4 fold.
